Earlier results as cited in patent publication US20170095445A1 (priority 2012, published 2017).
Residues, ends and D or L forms follow the SMILES beside them.

Test system: asthma induced by sensitization and challenge with ovalbumin
Conditions: mouse, in vivo

In the case of `CC(=O)NC(CS)C(=O)N1CCCC1C(=O)NC(CS)C(N)=O` (stereo not drawn) [R-901, 1-(2-acetamido-3-mercaptopropanoyl)-N-(1-amino-3-mercapto-1-oxopropan-2-yl) pyrrolidine-2-carboxamide] (Ac-Cys-Pro-Cys-NH2; configuration not given here), the “efficacy in murine model of asthma” value is listed as “efficacious”.
